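Briefly, cells in 96-well plates were exposed to five compound concentrations for 48 h, and endpoints were estimated by linear interpolation. TGI: concentration producing complete growth inhibition.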
Assays:
Assay in all cases: NCI tumour cell line growth inhibition, 48 h
786-0 renal = tested on: 786-0 renal
A498 renal = tested on: A498 renal
A549 NSCLC = tested on: A549 NSCLC
ACHN renal = tested on: ACHN renal
CAKI-1 renal = tested on: CAKI-1 renal
CCRF-CEM leukemia = tested on: CCRF-CEM leukemia
COLO 205 colon = tested on: COLO 205 colon
DLD-1 colon = tested on: DLD-1 colon
DMS 114 small cell lung = tested on: DMS 114 small cell lung
DMS 273 small cell lung = tested on: DMS 273 small cell lung
EKVX NSCLC = tested on: EKVX NSCLC
HCC-2998 colon = tested on: HCC-2998 colon
HCT-116 colon = tested on: HCT-116 colon
HCT-15 colon = tested on: HCT-15 colon
HL-60(TB) leukemia = tested on: HL-60(TB) leukemia
HOP-18 NSCLC = tested on: HOP-18 NSCLC
HOP-62 NSCLC = tested on: HOP-62 NSCLC
HOP-92 NSCLC = tested on: HOP-92 NSCLC
HT29 colon = tested on: HT29 colon
IGROV1 ovarian = tested on: IGROV1 ovarian
K-562 leukemia = tested on: K-562 leukemia
KM12 colon = tested on: KM12 colon
KM20L2 colon = tested on: KM20L2 colon
LOX IMVI melanoma = tested on: LOX IMVI melanoma
LXFL 529 NSCLC = tested on: LXFL 529 NSCLC
M14 melanoma = tested on: M14 melanoma
M19-MEL melanoma = tested on: M19-MEL melanoma
MALME-3M melanoma = tested on: MALME-3M melanoma
MOLT-4 leukemia = tested on: MOLT-4 leukemia
NCI-H226 lung = tested on: NCI-H226 lung
NCI-H23 lung = tested on: NCI-H23 lung
NCI-H460 lung = tested on: NCI-H460 lung
NCI-H522 lung = tested on: NCI-H522 lung
OVCAR-3 ovarian = tested on: OVCAR-3 ovarian
OVCAR-4 ovarian = tested on: OVCAR-4 ovarian
OVCAR-5 ovarian = tested on: OVCAR-5 ovarian
OVCAR-8 ovarian = tested on: OVCAR-8 ovarian
RPMI-8226 leukemia = tested on: RPMI-8226 leukemia
RXF 393 renal = tested on: RXF 393 renal
RXF-631 renal = tested on: RXF-631 renal
SF-268 CNS = tested on: SF-268 CNS
SF-295 CNS = tested on: SF-295 CNS
SF-539 CNS = tested on: SF-539 CNS
SK-MEL-2 melanoma = tested on: SK-MEL-2 melanoma
SK-MEL-28 melanoma = tested on: SK-MEL-28 melanoma
SK-MEL-5 melanoma = tested on: SK-MEL-5 melanoma
SK-OV-3 ovarian = tested on: SK-OV-3 ovarian
SN12C renal = tested on: SN12C renal
SNB-19 CNS = tested on: SNB-19 CNS
SNB-75 CNS = tested on: SNB-75 CNS
SNB-78 CNS = tested on: SNB-78 CNS
SW-620 colon = tested on: SW-620 colon
TK-10 renal = tested on: TK-10 renal
U251 CNS = tested on: U251 CNS
UACC-257 melanoma = tested on: UACC-257 melanoma
UACC-62 melanoma = tested on: UACC-62 melanoma
UO-31 renal = tested on: UO-31 renal
XF 498 CNS = tested on: XF 498 CNS

For `CC12CCCCC1(C)C2Sc1ccccc1` (stereo not drawn), the TGI (786-0 renal) was > 100 µM, the TGI (A498 renal) was 98.2 µM and the TGI (A549 NSCLC) was > 100 µM. For the same compound, the TGI (ACHN renal) was > 100 µM, the TGI (CAKI-1 renal) was > 100 µM and the TGI (CCRF-CEM leukemia) was 44.4 µM. For the same compound, the TGI (COLO 205 colon) was > 100 µM, the TGI (DLD-1 colon) was > 100 µM and the TGI (DMS 114 small cell lung) was > 77.8 µM. The TGI (DMS 273 small cell lung) was > 100 µM, the TGI (EKVX NSCLC) was > 96.8 µM and the TGI (HCC-2998 colon) was > 100 µM. The TGI (HCT-116 colon) was > 100 µM, the TGI (HCT-15 colon) was > 100 µM and the TGI (HL-60(TB) leukemia) was 36.9 µM. The TGI (HOP-18 NSCLC) was > 100 µM, the TGI (HOP-62 NSCLC) was > 100 µM and the TGI (HOP-92 NSCLC) was 97 µM. The TGI (HT29 colon) was > 100 µM, the TGI (IGROV1 ovarian) was > 100 µM and the TGI (K-562 leukemia) was 19.9 µM. For the same compound, the TGI (KM12 colon) was > 100 µM, the TGI (KM20L2 colon) was > 100 µM and the TGI (LOX IMVI melanoma) was > 61 µM. For the same compound, the TGI (LXFL 529 NSCLC) was > 100 µM, the TGI (M14 melanoma) was > 100 µM and the TGI (M19-MEL melanoma) was > 94.5 µM. For the same compound, the TGI (MALME-3M melanoma) was > 100 µM, the TGI (MOLT-4 leukemia) was 41.6 µM and the TGI (NCI-H226 lung) was > 100 µM. For the same compound, the TGI (NCI-H23 lung) was > 100 µM, the TGI (NCI-H460 lung) was > 100 µM and the TGI (NCI-H522 lung) was > 69.3 µM. The TGI (OVCAR-3 ovarian) was > 100 µM, the TGI (OVCAR-4 ovarian) was > 100 µM and the TGI (OVCAR-5 ovarian) was > 100 µM. For the same compound, the TGI (OVCAR-8 ovarian) was > 100 µM, the TGI (RPMI-8226 leukemia) was 40.3 µM and the TGI (RXF 393 renal) was > 70.3 µM. For the same compound, the TGI (RXF-631 renal) was > 100 µM, the TGI (SF-268 CNS) was > 100 µM and the TGI (SF-295 CNS) was > 100 µM. For the same compound, the TGI (SF-539 CNS) was > 100 µM, the TGI (SK-MEL-2 melanoma) was 50.7 µM and the TGI (SK-MEL-28 melanoma) was > 100 µM. For the same compound, the TGI (SK-MEL-5 melanoma) was > 63.5 µM, the TGI (SK-OV-3 ovarian) was > 100 µM and the TGI (SN12C renal) was > 100 µM. For the same compound, the TGI (SNB-19 CNS) was > 100 µM, the TGI (SNB-75 CNS) was > 100 µM and the TGI (SNB-78 CNS) was > 80.1 µM. The TGI (SW-620 colon) was > 100 µM, the TGI (TK-10 renal) was > 100 µM and the TGI (U251 CNS) was > 67.2 µM. For the same compound, the TGI (UACC-257 melanoma) was > 100 µM, the TGI (UACC-62 melanoma) was > 100 µM and the TGI (UO-31 renal) was > 100 µM. It also gave a TGI (XF 498 CNS) of 66.3 µM.

Source: PubChem BioAssay (NCI)
